Assay [1] concerns L5178Y. As to the kind of experiment: Cytotoxicity against mouse L5178Y cells assessed as cell viability at 10 ug/ml after 24 hrs by MTT assay relative to control. The assay is classed as functional. The settings on record: read-out: Activity. (In general: Tetrazolium dyes change colour on reduction, which living cells bring about.)
A further assay concerns Acinetobacter baumannii. Nature of the assay: […] activity against Acinetobacter baumannii BAA1605 assessed as reduction in microbial growth by CLSI based broth microdilution method. It is filed as functional. (In general: Broth dilution looks for growth in wells or tubes with falling amounts of substance.)
Assay [2] relates to Staphylococcus aureus. Nature of the assay: Antibacterial activity against Staphylococcus aureus ATCC 29213 assessed as reduction in microbial growth by CLSI based broth microdilution method. The assay is classed as functional.
Assay [3] relates to Mycobacterium tuberculosis. As to the kind of experiment: Antitubercular activity against Mycobacterium tuberculosis H37Rv assessed as reduction in microbial growth by CLSI based broth microdilution method. It is filed as functional.
For another assay, the system named is Pseudomonas aeruginosa. As to the kind of experiment: Antibacterial activity against Pseudomonas aeruginosa 27853 assessed as reduction in microbial growth by CLSI based broth microdilution method. It is filed as functional.
The subject of assay [4] is L5178Y. Nature of the assay: Cytotoxicity against mouse L5178Y cells assessed as reduction in cell viability after 24 hrs by MTT assay. It is filed as functional, cell-based.
The test system of assay [5] is Ustilago maydis. Nature of the assay: Antifungal activity against Ustilago maydis AB33 assessed as diameter of zone inhibition at 100 ug by Kirby-Bauer disk diffusion method. To be noted: Mycosarcoma maydis. It is filed as functional.
Assay [6] concerns Saccharomyces cerevisiae. Nature of the assay: Antifungal activity against Saccharomyces cerevisiae ESM356-1 assessed as diameter of zone inhibition at 100 ug by Kirby-Bauer disk diffusion method. The assay is classed as functional, organism-based. The settings on record: dose 100.0 µg.
The subject of assay [7] is Saccharomyces cerevisiae. Nature of the assay: Antifungal activity against Saccharomyces cerevisiae ESM356-1 assessed as diameter of zone inhibition at 50 ug by Kirby-Bauer disk diffusion method. The assay is classed as functional. The settings on record: read-out: DIZ.
The subject of assay [8] is Ustilago maydis. As to the kind of experiment: Antifungal activity against Ustilago maydis AB33 assessed as diameter of zone inhibition at 50 ug by Kirby-Bauer disk diffusion method. The settings on record: Mycosarcoma maydis, read-out: DIZ. It is filed as functional. (In general: In agar diffusion tests the substance spreads into inoculated agar from a disc or well.)

The next assay deals with Enterococcus faecalis. As to the kind of experiment: […] activity against Enterococcus faecalis ATCC 29212 assessed as reduction in microbial growth by CLSI based broth microdilution method. It is filed as functional.
Assay [9] concerns Staphylococcus aureus. Nature of the assay: Antibacterial activity against Staphylococcus aureus ATCC 700699 assessed as reduction in microbial growth by CLSI based broth microdilution method. The assay is classed as functional.

The record followed here is ChEMBL document CHEMBL4680203, “Cladosins L-O, new hybrid polyketides from the endophytic fungus Cladosporium sphaerospermum WBS017” (Eur J Med Chem, 2020).

One may read the MIC as the lowest concentration found to suppress growth. Consider `CC(C)=C1NC(=O)C2=C1O[C@H](C[C@H](C)O)CC2=O`, for which the viability at 10 µg/mL in the assay with L5178Y [1] came to 100%. The minimal inhibitory concentration (MIC) (with Acinetobacter baumannii; in the assay with Staphylococcus aureus [2]; in assay [3]; in the assay on Pseudomonas aeruginosa) was over 100 µM in each case.

Consider `CC(C)=C1NC(=O)C(=C(N)/C=C/CC(C)O)C1=O` (centres undefined), for which the viability at 10 µg/mL with L5178Y [1] is 32.8%. For the same compound, the minimal inhibitory concentration (MIC) is over 100 µM in the assay on Acinetobacter baumannii, over 100 µM with Staphylococcus aureus [2], 100 µM in assay [3] and over 100 µM in the assay on Pseudomonas aeruginosa.

What is called EC50 is the concentration that produces a half-maximal response. For `CC(C)=C1NC(=O)C(=C2C=CCC(C)O2)C1=O` (centres undefined), the EC50 in the assay with L5178Y [4] is 3.7 µM. Also, the viability at 10 µg/mL with L5178Y [1] came to 0%. The minimal inhibitory concentration (MIC) (in the assay with Acinetobacter baumannii; in the assay on Staphylococcus aureus [2]; in assay [3]; in the assay with Pseudomonas aeruginosa) was over 100 µM each time. The zone of inhibition at 100 µg/disc in the assay on Ustilago maydis [5] (read-out: DIZ) came to 9.7 mm.

In the case of `CC(C)=C1NC(=O)C(=C(N)CC(O)C[C@@H](C)O)C1=O` (some centres undefined), the viability at 10 µg/mL with L5178Y [1] was 82.2%. Besides, the MIC was over 100 µM in the assay with Acinetobacter baumannii, over 100 µM in the assay on Staphylococcus aureus [2], 100 µM in [3] and over 100 µM in the assay on Pseudomonas aeruginosa.

Consider NYSTATIN, for which the inhibition zone (IZ) with Saccharomyces cerevisiae [6] stood at 7.8 mm; in the assay on Ustilago maydis [5] (dose 100.0 µg), 32.7 mm.

Take `C/C=C1\NC(=O)[C@H](Cc2ccccc2)NC(=O)[C@H](C(C)C)NC(=O)[C@@H]([C@@H](C)CC)NC(=O)[C@@H](NC(=O)[C@H](NC(=O)[C@H](CCCN)NC(=O)[C@H]2CCCN2C(=O)[C@@H](NC(=O)C(NC(=O)[C@@H](NC(=O)[C@@H](NC(=O)CCCC(C)C)C(C)C)[C@@H](C)O)C(C)C)C(C)C)[C@@H](C)CC)[C@@H](C)OC(=O)[C@H](C(C)C)NC1=O` (some centres undefined): the concentration giving a half-maximal response (EC50) in the assay on L5178Y [4] worked out at 4.3 µM. The viability at 10 µg/mL in the assay with L5178Y [1] stood at 0%.

Turning to `CC(C)=C1NC(=O)C2=C1O[C@@H](C[C@H](C)O)CC2=O`, the MIC (with Acinetobacter baumannii; with Staphylococcus aureus [2]; in [3]; in the assay on Pseudomonas aeruginosa) was over 100 µM throughout.

On to `CN[C@H]1C[C@@H](N)[C@H](O)[C@@H](O[C@@H]2O[C@H](CO)[C@H](O)[C@@H]3O[C@@]4(O[C@H]23)O[C@H]([C@H](N)CO)[C@H](O)[C@H](O)[C@H]4O)[C@@H]1O`, for which the zone of inhibition at 50 µg/disc in the assay on Saccharomyces cerevisiae [7] came out at 8.7 mm; with Ustilago maydis [8] it was 8.3 mm.

As for `CC(C)=C1NC(=O)C(=Cc2ccc(O)cc2)C1=O` (mixture of isomers), the minimal inhibitory concentration (MIC) with Enterococcus faecalis was over 100 µM; in the assay with Staphylococcus aureus [9] it was 25 µM; in the assay on Acinetobacter baumannii, over 100 µM; with Staphylococcus aureus [2], 50 µM; in assay [3], over 100 µM; with Pseudomonas aeruginosa, over 100 µM. In the assay with L5178Y [1], the viability at 10 µg/mL came out at 18.2%.

Turning to `CC(C)=C1NC(=O)C(=C(N)CCCC(C)O)C1=O` (mixture of isomers), the viability at 10 µg/mL in the assay on L5178Y [1] amounted to 50.9%. The MIC with Acinetobacter baumannii was over 100 µM; with Staphylococcus aureus [2] it was over 100 µM; in [3] it was 100 µM; in the assay with Pseudomonas aeruginosa, over 100 µM.

Take `CC(C)=C1NC(=O)C(=C(N)CC(O)C[C@H](C)O)C1=O` (some centres undefined): the viability at 10 µg/mL in the assay on L5178Y [1] turned out to be 53.1%. In addition, the minimum inhibitory concentration (MIC) is over 100 µM with Acinetobacter baumannii, over 100 µM in the assay with Staphylococcus aureus [2], 100 µM in assay [3] and over 100 µM with Pseudomonas aeruginosa.
